Measured values as given in ChEMBL document CHEMBL5729167, “Substituted dihydrothienopyrimidines and their use as phosphodiesterase inhibitors” (2022).

Molecular target: Tumor necrosis factor (Homo sapiens, UniProt P01375)
Assay: TNF-alpha RELEASE: Human peripheral blood mononuclear cells (PBMC) were isolated from fresh buffy coats by density centrifugation using lymphoprep tubes (Medinor). Frozen PBMC's were washed in serum free assay buffer (RPMI1640 with 25 mM HEPES, 1% pen/strep, […], 0.5% human serum albumin) and living cells counted. Lipopolysaccharide (1 microg/ml; SIGMA) was added to the cells which were then transferred to 384 well tissue culture plates (5×105 c/ml) containing titrated test compounds. The cells were incubated for 18 hours at 37° C. in serum free assay buffer and the level of TNFalpha in the supernatant was quantitated by AlphaLISA (PerkinElmer) by measuring fluorescence intensity at 615 nm.Results were expressed as IC50 values calculated from inhibition curves using as controls the secretion in LPS stimulated wells and the secretion in cells incubated with 10 microM of a PDE4 inhibitor reference compound.

Tumor necrosis factor, sequence (P01375 whole entry): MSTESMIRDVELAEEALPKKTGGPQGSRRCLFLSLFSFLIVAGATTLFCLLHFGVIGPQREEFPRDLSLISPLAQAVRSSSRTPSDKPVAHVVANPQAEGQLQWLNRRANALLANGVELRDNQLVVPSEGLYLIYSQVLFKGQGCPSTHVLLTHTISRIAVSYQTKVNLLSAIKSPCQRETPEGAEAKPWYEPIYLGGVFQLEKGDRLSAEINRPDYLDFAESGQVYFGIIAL

## CC(=O)N1CC[C@@H](Nc2nc(N3CC(OC(=O)C4CCOCC4)C3)nc3c2[S@+]([O-])CC3)C1
  IC50: > 500 nM
